The CheMixHub viscosity set
± gives the uncertainty stated by the source.

Test: xn = mol fraction of the nth substance listed

CCCCCCCCCCCCCCCC + C1CCCCC1
viscosity [mPa·s]
Conditions	298.15 K	323.15 K
100 kPa, x2 = 0.2	2.654 ± 0.11	1.632 ± 0.067
100 kPa, x2 = 0.4	2.239 ± 0.091	1.399 ± 0.057
100 kPa, x2 = 0.6	1.79 ± 0.072	1.154 ± 0.047
100 kPa, x2 = 0.8	1.326 ± 0.053	0.8848 ± 0.036
101.33 kPa, x1 = 0.0129	0.9348 ± 0.0079	–
101.33 kPa, x2 = 0.1809	2.717 ± 0.021	–
101.33 kPa, x2 = 0.3339	2.395 ± 0.018	–
101.33 kPa, x2 = 0.458	2.126 ± 0.017	–
101.33 kPa, x2 = 0.557	1.892 ± 0.015	–
101.33 kPa, x2 = 0.6415	1.709 ± 0.014	–
101.33 kPa, x2 = 0.7087	1.549 ± 0.012	–
101.33 kPa, x2 = 0.7738	1.39 ± 0.011	–
101.33 kPa, x2 = 0.828	1.27 ± 0.01	–
101.33 kPa, x2 = 0.8753	1.169 ± 0.0096	–
101.33 kPa, x2 = 0.9197	1.08 ± 0.0089	–
101.33 kPa, x2 = 0.9513	1.008 ± 0.0084	–

ClC(Cl)Cl + C1CCCCC1
298.15 K, 101 kPa
Conditions	viscosity [mPa·s]
x1 = 0.2026	0.7795 ± 0.0098
x1 = 0.3543	0.6917 ± 0.0087
x1 = 0.4317	0.665 ± 0.0083
x1 = 0.5593	0.6217 ± 0.0078
x1 = 0.6464	0.6057 ± 0.0076
x1 = 0.7738	0.5875 ± 0.0074
x1 = 0.886	0.5657 ± 0.0071

ClC(Cl)Cl + C1COCCO1
Conditions	viscosity [mPa·s]
293.15 K, 101.33 kPa, x1 = 0.152	1.199 ± 0.031
293.15 K, 101.33 kPa, x1 = 0.2726	1.129 ± 0.029
293.15 K, 101.33 kPa, x1 = 0.3876	1.063 ± 0.028
293.15 K, 101.33 kPa, x1 = 0.4413	1.035 ± 0.027
293.15 K, 101.33 kPa, x1 = 0.516	0.992 ± 0.026
293.15 K, 101.33 kPa, x1 = 0.6385	0.919 ± 0.024
293.15 K, 101.33 kPa, x1 = 0.7409	0.819 ± 0.021
293.15 K, 101.33 kPa, x1 = 0.8856	0.677 ± 0.018
298.15 K, 101 kPa, x1 = 0.2	1.08 ± 0.012
298.15 K, 101 kPa, x1 = 0.4	0.981 ± 0.012
298.15 K, 101 kPa, x1 = 0.6	0.865 ± 0.011
298.15 K, 101 kPa, x1 = 0.8	0.703 ± 0.011
298.15 K, 101.33 kPa, x1 = 0.152	1.073 ± 0.028
298.15 K, 101.33 kPa, x1 = 0.2726	1.018 ± 0.026
298.15 K, 101.33 kPa, x1 = 0.3876	0.964 ± 0.025
298.15 K, 101.33 kPa, x1 = 0.4413	0.952 ± 0.025
298.15 K, 101.33 kPa, x1 = 0.516	0.905 ± 0.023
298.15 K, 101.33 kPa, x1 = 0.6385	0.837 ± 0.022
298.15 K, 101.33 kPa, x1 = 0.7409	0.774 ± 0.02
298.15 K, 101.33 kPa, x1 = 0.8856	0.658 ± 0.017
303.15 K, 101 kPa, x2 = 0.0995	0.59 ± 0.006
303.15 K, 101 kPa, x2 = 0.1981	0.672 ± 0.007
303.15 K, 101 kPa, x2 = 0.2998	0.75 ± 0.007
303.15 K, 101 kPa, x2 = 0.3953	0.801 ± 0.008
303.15 K, 101 kPa, x2 = 0.4992	0.857 ± 0.008
303.15 K, 101 kPa, x2 = 0.5971	0.91 ± 0.009
303.15 K, 101 kPa, x2 = 0.6993	0.956 ± 0.009
303.15 K, 101 kPa, x2 = 0.8015	0.997 ± 0.01
303.15 K, 101 kPa, x2 = 0.9021	1.044 ± 0.01
303.15 K, 101.33 kPa, x1 = 0.2137	1.007 ± 0.026
303.15 K, 101.33 kPa, x1 = 0.3447	0.949 ± 0.024
303.15 K, 101.33 kPa, x1 = 0.4212	0.934 ± 0.024
303.15 K, 101.33 kPa, x1 = 0.4813	0.886 ± 0.023
303.15 K, 101.33 kPa, x1 = 0.5194	0.879 ± 0.023
303.15 K, 101.33 kPa, x1 = 0.5698	0.844 ± 0.022
303.15 K, 101.33 kPa, x1 = 0.7088	0.752 ± 0.019

ClC(Cl)Cl + CC1COC(=O)O1
303.15 K, 101.3 kPa
Conditions	viscosity [mPa·s]
x2 = 0.0961	0.5649 ± 0.01
x2 = 0.1929	0.6358 ± 0.011
x2 = 0.2906	0.7195 ± 0.013
x2 = 0.3894	0.8171 ± 0.014
x2 = 0.4887	0.9421 ± 0.016
x2 = 0.5894	1.098 ± 0.018
x2 = 0.6906	1.287 ± 0.021
x2 = 0.7925	1.52 ± 0.025
x2 = 0.8962	1.808 ± 0.029
